From BindingDB's records for doi:10.1021/acs.jmedchem.7b00155 (University of Bari Aldo Moro, 2017) come the findings set out here.

This assay addresses Cannabinoid receptor 1 (Homo sapiens, UniProt P21554). Put plainly: ChEBML_1680109. An excerpt:
Agonist activity at human CB1 receptor expressed in mouse AtT-20 cells co expressing GIRK by FLIPR assay

Molecules are shown by their SMILES.

Cannabinoid receptor 1, sequence (P21554 whole entry): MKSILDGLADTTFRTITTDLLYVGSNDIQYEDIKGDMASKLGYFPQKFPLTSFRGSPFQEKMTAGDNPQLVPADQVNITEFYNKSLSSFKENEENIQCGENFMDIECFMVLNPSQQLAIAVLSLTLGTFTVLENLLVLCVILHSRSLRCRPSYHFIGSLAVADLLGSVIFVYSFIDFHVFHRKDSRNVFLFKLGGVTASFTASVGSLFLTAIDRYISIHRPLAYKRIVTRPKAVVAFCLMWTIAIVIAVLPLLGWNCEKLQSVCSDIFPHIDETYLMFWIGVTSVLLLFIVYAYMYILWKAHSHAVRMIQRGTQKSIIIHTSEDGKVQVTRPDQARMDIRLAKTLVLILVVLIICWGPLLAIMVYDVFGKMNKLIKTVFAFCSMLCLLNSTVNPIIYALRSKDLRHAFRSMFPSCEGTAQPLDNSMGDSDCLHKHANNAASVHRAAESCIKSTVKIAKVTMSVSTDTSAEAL

As to `CC(C)[C@H](NC(=O)c1nn(Cc2ccc(F)cc2)c2ccccc12)C(N)=O`, the EC50 (in general, the concentration needed to bring the measured effect to its halfway point) came out at 2.1 nM.
